Results as given in patent US12544382B2, “2, 4, 6-tri-substituted pyrimidine compound as ATR kinase inhibitor” (BEIJING TIDE PHARMACEUTICAL CO., LTD., priority 2019, dated 2026).

These compounds were tested against ATR kinase (Homo sapiens (Human), UniProt Q13535) (assay: ATR kinase activity assay (time-resolved fluorescence, p53 substrate phosphorylation)).
Type: biochemical
Protocol: Biotinylated protein derived from p53 (Eurofins, art. No.: 14-952) was phosphorylated with ATR kinase. The amount of phosphorylated protein was determined by time-resolved fluorescence in this assay. The amount of phosphorylated protein was detected by anti-p53-phospho-(serine 15)-K-specific antibody (Cisbio, art. No.: 61GSTDLA) and d2 labeled anti-GST antibody (Cisbio, art. No. 61P08KAE). Before the experiment, the following working solution was prepared as required: 1× reaction buffer (20 mM HEPES PH8.0, 1% glycerol, 0.01% Brij-35), dilution buffer (20 mM HEPES PH8.0, 1% glycerol, 0.01% Brij-35, 5 mM DTT and 1% BSA), stop solution (20 mM HEPES PH8.0, 1% glycerol, 0.01% Brij-35, 250 mM EDTA), detection buffer (50 mM HEPES pH7.0, 150 mM NaCl, 267 mM KF, 0.1% sodium cholate, 0.01% Tween-20, 0.0125% sodium azide). The reagents used above are purchased from Sigma or Invitrogen, except for those where the manufacturer was mentioned.
Operations are as follows:
4× gradient dilution of compound solutions was prepared with 1× reaction buffer to obtain 9 compound solutions of different concentrations, and 2.5 μL 4× gradient dilution of compound solutions was added to a 384-well analysis plate (784075, Greiner). 4× p53 substrate working solution (40 nM) was prepared with 1× reaction buffer, and 2.5 μL 4× p53 substrate working solution was added to the 384-well analysis plate. 4×ATR/ATRIP working solution (12.8 ng/μL) was prepared with dilution buffer, and 2.5 μL 4×pATR/ATRIP working solution was added to the 384-well analysis plate. 4×ATP working solution (2 mM) was prepared with deionized water, 2.5 μL 4×ATP working solution was added to the 384-well analysis plate, and incubated at room temperature in dark for 30 minutes. 5 μL stop solution was added to the 384 analysis plate. Finally, 5 μL test mixture (0.084 ng/μL Anti-phospho-p53(ser15)-K and 5 ng/μL Anti-GST-d2) was added to the 384 well analysis plate, incubated overnight at room temperature, and the fluorescence signal was detected with ENVISION (Perkinelmer) instrument (excitation wavelength: 320 nm, emission wavelength: 665 nm and 615 nm). The inhibition rate in each well was calculated by the fluorescence intensity value of each hole: ER (Emission Ratio)=(Fluorescence intensity at 665 nm/Fluorescence intensity at 615 nm); inhibition rate=(ER positive-ER test compound)/(ER positive-ER negative)×100%, the IC50 value of compounds were calculated by standard parameter fitting software (GraphPad Prism 6.0).

Sequence of ATR kinase (Q13535 whole entry): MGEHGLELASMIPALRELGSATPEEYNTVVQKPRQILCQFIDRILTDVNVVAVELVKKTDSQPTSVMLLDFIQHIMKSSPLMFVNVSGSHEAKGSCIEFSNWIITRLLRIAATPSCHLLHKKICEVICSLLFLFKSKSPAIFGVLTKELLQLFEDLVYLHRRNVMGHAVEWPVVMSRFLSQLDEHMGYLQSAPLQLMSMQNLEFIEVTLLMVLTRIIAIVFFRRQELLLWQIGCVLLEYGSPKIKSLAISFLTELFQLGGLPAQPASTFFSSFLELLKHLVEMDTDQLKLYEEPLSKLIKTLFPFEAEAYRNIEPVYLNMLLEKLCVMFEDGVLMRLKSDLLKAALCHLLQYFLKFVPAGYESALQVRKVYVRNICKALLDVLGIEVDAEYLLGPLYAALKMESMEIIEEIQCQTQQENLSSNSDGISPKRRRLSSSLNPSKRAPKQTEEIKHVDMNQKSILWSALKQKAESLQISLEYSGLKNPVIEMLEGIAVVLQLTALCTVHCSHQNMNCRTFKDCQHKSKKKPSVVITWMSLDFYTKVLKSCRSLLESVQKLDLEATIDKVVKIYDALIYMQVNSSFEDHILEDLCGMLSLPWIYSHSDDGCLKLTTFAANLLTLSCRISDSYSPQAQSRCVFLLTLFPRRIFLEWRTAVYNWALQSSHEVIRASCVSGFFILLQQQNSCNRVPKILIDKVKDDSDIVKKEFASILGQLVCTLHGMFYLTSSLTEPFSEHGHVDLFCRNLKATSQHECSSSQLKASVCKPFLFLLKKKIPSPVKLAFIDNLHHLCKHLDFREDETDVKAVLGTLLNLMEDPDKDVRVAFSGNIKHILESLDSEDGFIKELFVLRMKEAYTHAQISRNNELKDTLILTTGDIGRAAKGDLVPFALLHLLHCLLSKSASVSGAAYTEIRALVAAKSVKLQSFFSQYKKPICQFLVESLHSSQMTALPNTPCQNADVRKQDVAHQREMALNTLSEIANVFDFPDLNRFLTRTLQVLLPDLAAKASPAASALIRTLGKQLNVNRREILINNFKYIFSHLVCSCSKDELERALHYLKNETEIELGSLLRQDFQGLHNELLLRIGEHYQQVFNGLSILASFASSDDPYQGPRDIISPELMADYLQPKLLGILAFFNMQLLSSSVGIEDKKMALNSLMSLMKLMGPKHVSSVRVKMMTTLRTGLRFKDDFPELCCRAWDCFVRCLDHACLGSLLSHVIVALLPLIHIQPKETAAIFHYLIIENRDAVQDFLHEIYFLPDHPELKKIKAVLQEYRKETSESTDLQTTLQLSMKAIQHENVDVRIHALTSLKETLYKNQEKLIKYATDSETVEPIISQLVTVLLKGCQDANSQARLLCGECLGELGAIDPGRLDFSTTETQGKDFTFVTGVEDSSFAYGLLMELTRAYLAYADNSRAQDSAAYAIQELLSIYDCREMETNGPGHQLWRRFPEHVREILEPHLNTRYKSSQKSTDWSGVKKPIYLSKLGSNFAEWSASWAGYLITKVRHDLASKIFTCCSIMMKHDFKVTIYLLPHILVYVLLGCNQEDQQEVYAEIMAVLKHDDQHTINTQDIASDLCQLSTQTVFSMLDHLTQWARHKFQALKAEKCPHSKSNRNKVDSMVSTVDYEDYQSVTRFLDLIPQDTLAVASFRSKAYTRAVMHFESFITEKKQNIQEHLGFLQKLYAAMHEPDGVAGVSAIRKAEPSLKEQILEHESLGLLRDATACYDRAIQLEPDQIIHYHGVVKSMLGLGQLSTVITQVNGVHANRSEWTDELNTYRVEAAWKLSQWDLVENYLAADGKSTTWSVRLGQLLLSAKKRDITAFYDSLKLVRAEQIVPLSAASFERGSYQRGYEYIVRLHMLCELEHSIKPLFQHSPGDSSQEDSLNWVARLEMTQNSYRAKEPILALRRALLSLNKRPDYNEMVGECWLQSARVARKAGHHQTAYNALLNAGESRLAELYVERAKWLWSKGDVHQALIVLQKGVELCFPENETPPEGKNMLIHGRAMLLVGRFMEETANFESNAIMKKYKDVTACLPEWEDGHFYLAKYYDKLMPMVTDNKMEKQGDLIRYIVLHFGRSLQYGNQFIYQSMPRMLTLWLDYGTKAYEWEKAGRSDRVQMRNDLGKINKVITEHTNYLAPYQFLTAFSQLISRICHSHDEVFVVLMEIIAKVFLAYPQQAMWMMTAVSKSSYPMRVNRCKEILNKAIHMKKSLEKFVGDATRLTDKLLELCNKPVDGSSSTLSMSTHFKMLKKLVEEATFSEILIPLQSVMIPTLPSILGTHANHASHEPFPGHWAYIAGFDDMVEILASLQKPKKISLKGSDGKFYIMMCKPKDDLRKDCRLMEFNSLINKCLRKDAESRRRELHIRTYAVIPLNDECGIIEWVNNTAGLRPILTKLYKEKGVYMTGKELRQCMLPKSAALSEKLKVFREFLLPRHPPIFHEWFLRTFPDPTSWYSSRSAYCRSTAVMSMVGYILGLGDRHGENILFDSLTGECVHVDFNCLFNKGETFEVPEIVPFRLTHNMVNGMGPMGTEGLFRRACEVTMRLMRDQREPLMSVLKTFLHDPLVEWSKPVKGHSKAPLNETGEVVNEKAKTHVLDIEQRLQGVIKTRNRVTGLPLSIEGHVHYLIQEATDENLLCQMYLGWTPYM
Sequence of ATR kinase (Q8WXE1 whole entry partner): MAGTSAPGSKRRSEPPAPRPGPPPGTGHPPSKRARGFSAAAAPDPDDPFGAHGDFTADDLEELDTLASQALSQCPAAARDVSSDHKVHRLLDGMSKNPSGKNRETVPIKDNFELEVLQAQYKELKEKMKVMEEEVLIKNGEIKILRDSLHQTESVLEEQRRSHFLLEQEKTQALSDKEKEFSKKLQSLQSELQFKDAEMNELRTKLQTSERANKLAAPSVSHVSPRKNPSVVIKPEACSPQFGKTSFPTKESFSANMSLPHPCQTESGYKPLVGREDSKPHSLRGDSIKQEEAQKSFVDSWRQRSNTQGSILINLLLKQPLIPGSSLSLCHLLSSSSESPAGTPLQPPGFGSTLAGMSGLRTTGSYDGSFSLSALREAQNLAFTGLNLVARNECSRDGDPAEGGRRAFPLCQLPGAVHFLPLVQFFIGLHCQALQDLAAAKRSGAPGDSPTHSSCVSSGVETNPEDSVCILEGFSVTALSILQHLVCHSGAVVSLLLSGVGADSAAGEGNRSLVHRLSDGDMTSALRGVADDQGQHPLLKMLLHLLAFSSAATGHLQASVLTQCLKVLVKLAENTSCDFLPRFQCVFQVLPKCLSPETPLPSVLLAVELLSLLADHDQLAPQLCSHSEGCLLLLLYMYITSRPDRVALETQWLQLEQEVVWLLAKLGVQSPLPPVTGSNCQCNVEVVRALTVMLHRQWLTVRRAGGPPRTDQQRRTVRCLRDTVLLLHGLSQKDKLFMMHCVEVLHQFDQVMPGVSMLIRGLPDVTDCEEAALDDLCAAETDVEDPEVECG

Compared with `Cc1c(-c2cc(N3CCOC[C@H]3C)nc(-c3ccc(C#N)c4[nH]ccc34)n2)c(C(F)(F)F)nn1C1CCNCC1` [Compound D5], `Cc1nn(C2CCNCC2)c(C)c1-c1cc(N2CCOC[C@H]2C)nc(-c2ccnc3[nH]ccc23)n1` [Compound A16] is 27-fold lower in IC50: 108 nM for the first, 4 nM for the second.

Going from `Cc1nn(C)c(C)c1-c1nc(-c2ccnc3[nH]ccc23)cc(N2CCOC[C@H]2C)n1` [Compound B1] to `Cc1nn(C)c(C)c1-c1nc(-c2ccnc3[nH]ccc23)nc(N2CCOC[C@H]2C)n1` [Compound C1], the IC50 falls from 255 nM to 41 nM (6.2-fold).

First: COCCn1nc(C)c(-c2cc(N3CCOC[C@H]3C)nc(-c3ccnc4[nH]ccc34)n2)c1C [Compound A14]
Second: Cc1nn(CCN(C)C)c(C)c1-c1cc(N2CCOC[C@H]2C)nc(-c2ccnc3[nH]ccc23)n1 [Compound A21]
The IC50 of the first is 10-fold higher: 571 nM for the first, 56 nM for the second.

Going from `Cc1nn(CC2CCOC2)c(C)c1-c1cc(N2CCOC[C@H]2C)nc(-c2ccnc3[nH]ccc23)n1` (stereo partly shown) [Compound A28] to `Cc1nn(CC2CNC2)c(C)c1-c1cc(N2CCOC[C@H]2C)nc(-c2ccnc3[nH]ccc23)n1` [Compound A18], the IC50 rises from 25 nM to 47 nM (1.9-fold).

Going from `CC(C)S(=O)(=O)c1ccc(C(F)(F)F)c(-c2cc(N3CCOC[C@H]3C)nc(-c3ccnc4[nH]ccc34)n2)c1` [Compound A29] to `Cc1ccc(S(=O)(=O)C(C)C)cc1-c1cc(N2CCOC[C@H]2C)nc(-c2ccnc3[nH]ccc23)n1` [Compound A39], the IC50 falls from 631 nM to 121 nM (5.2-fold). The second is the more potent here.

Going from `Cc1nn(C2CCOCC2)c(C)c1-c1cc(N2CCOC[C@H]2C)nc(-c2ccnc3[nH]ccc23)n1` [Compound A24] to `CCN1CCC(n2nc(C)c(-c3cc(N4CCOC[C@H]4C)nc(-c4ccnc5[nH]ccc45)n3)c2C)CC1` [Compound A20], the IC50 rises from 57 nM to 98 nM (1.7-fold).

Compared with `CCN(C)S(=O)(=O)c1ccc(C(C)C)c(-c2cc(N3CCOC[C@H]3C)nc(-c3ccnc4[nH]ccc34)n2)c1` [Compound A33], `Cc1ccc(S(=O)(=O)N(C)CCN(C)C)cc1-c1cc(N2CCOC[C@H]2C)nc(-c2ccnc3[nH]ccc23)n1` [Compound A34] is 3.3-fold lower in IC50: 936 nM for the first, 282 nM for the second. The second is the more potent here.

Going from `Cc1nn(C)c(C)c1-c1nc(-c2ccnc(C(F)F)c2)cc(N2CCOC[C@H]2C)n1` [Compound B8] to `CCNC(=O)Nc1ccc(-c2nc(-c3c(C)nn(C)c3C)cc(N3CCOC[C@H]3C)n2)cc1` [Compound A26], the IC50 falls from over 10000 nM to 2170 nM. The second is the more potent here.

`C[C@@H]1COCCN1c1cc(-c2ccc(S(C)(=O)=O)cc2)nc(-c2ccnc3[nH]ccc23)n1` [Compound A5] and `C[C@@H]1COCCN1c1cc(-c2ccnc3[nH]ccc23)nc(-c2ccc(S(C)(=O)=O)cc2)n1` [Compound B3] cannot be ordered by IC50: over 10000 nM for the first, over 10000 nM for the second.

Going from `Cc1nn(C)cc1-c1nc(-c2ccnc3[nH]ccc23)cc(N2CCOC[C@H]2C)n1` [Compound B5] to `Cc1nn(CC2CNC2)c(C)c1-c1nc(-c2ccnc3[nH]ccc23)cc(N2CCOC[C@H]2C)n1` [Compound B7], the IC50 falls from 1610 nM to 340 nM (4.7-fold).

Going from `Cc1nn(CC2CCCN(C)C2)c(C)c1-c1cc(N2CCOC[C@H]2C)nc(-c2ccnc3[nH]ccc23)n1` (stereo partly shown) [Compound A38] to `Cc1ccc(S(=O)(=O)C2CCN(C)CC2)cc1-c1cc(N2CCOC[C@H]2C)nc(-c2ccnc3[nH]ccc23)n1` [Compound A36], the IC50 rises from 30 nM to 91 nM (3-fold).

First: C[C@@H]1COCCN1c1cc(-c2ccnc3[nH]ccc23)nc(-c2cccc(S(C)(=O)=O)c2)n1 [Compound B2]
Second: C[C@@H]1COCCN1c1cc(-c2cccc(S(C)(=O)=O)c2)nc(-c2ccnc3[nH]ccc23)n1 [Compound A4]
The IC50 of the first is 24-fold higher: 4300 nM for the first, 179 nM for the second. The second is the more potent here.

First: Cc1ccc(S(=O)(=O)NCCCO)cc1-c1cc(N2CCOC[C@H]2C)nc(-c2ccnc3[nH]ccc23)n1 [Compound A40]
Second: Cc1ccc(S(C)(=O)=O)cc1-c1cc(N2CCOC[C@H]2C)nc(-c2ccnc3[nH]ccc23)n1 [Compound A9]
The IC50 of the first is 1.6-fold higher: 50 nM for the first, 31 nM for the second.

`CCNC(=O)Nc1nc2ccccc2n1-c1nc(-c2c(C)nn(C3CCNCC3)c2C(F)(F)F)cc(N2CCOC[C@@H]2C)n1` [Compound D37] and `CNc1nc2ccc(F)cc2n1-c1nc(-c2c(C(F)(F)F)nn(C3CCCNC3)c2C)cc(N2CCOC[C@@H]2C)n1` (stereo partly shown) [Compound D34] are within 1.5-fold of each other in IC50: 71 nM for the first, 73 nM for the second.
